Experimental data as given in patent publication US20100104546A1, “MODULATORS OF ANTIGEN-DEPENDENT T CELL PROLIFERATION” (CHILDREN, YOUTH AND WOMEN'S HEALTH SERVICE, priority 2007, published 2010).

Assays:
[1] = tested on: splenic T cells and MHC class II cells; test: Co-culture of enriched splenic T cells and MHC class II cells, SRBC-induced proliferation; format: in vivo, mice; conditions: 80 mg/kg IP, 3 days
Protocol: (A) β-oxa-21:3n-3 (80 mg/kg) or vehicle was injected once intraperitoneally to 5 days SRBC-sensitized mice. After the indicated time period spleens were removed and cell suspensions were incubated in the presence or absence of SRBC for 3 days. Thymidine incorporation for final 16 hours of culture was determined. Percent inhibition of proliferation by β-oxa-21:3n-3 compared to vehicle injected animals are depicted against duration of exposure. (B) β-oxa-21:3n-3 (80 mg/kg) or vehicle was injected once intraperitoneally to 5 days SRBC-sensitized mice. After two hours spleens were removed and T cell and MHC II positive cells were enriched using MACS magnetic beads. As indicated, vehicle and β-oxa-21:3n-3 injected animal's enriched cells were then co-cultured in the presence or absence of SRBC for 3 days. Thymidine incorporation for final 16 h of culture was determined. Splenocytes proliferation is plotted versus the type of co-cultured cells.
In co-culture experiments negative selection purification systems were utilized to ensure isolation of untouched cells to avoid side effects on cell viability and activity. […] For accuracy in cell counts and cell viability, the enriched cells were also inspected by hemocytometer and then counted using Cell-Dyne 3500R (ABBOTT, Inc. MA) and then co-cultured. […]

spleen cells = test: Viability and composition of splenic cells by microscopy and flow cytometry; format: in vivo, mice
Protocol: Data acquisition was performed using a BD Immunocytometry Systems four-color FACScalibur (Mountain View, Calif.), and the acquired data were analyzed using FloJo software (Tree Star Inc., Palo Alto, Calif.).
To exclude that this effect of β-oxa-21:3n-3 was not due to necrosis or apoptosis of the splenic cells, we examined the viability and composition of live splenic cells from animals treated with this fatty acid, by microscopy and flow cytometry.

[2] = tested on: Th1, Th2 and macrophage-related cytokines; test: Ex vivo cytokine production by antigen (SRBC)-stimulated splenocytes; format: in vivo, mice; conditions: splenocytes cultured 3 days with SRBC, IP dosing
splenocytes = test: Mitogen (PHA/PMA, PMA/A23187, PHA)-stimulated splenocyte adhesion and proliferation, ex vivo; format: in vivo, mice
Protocol: (A) β-oxa-21:3n-3 or vehicle was injected intraperitoneally to 5 day SRBC-sensitized mice. After 2 h splenocytes (1×10^6 cells) were cultured in a 24 well tissue culture plate (Nunc, Inc. […] Cells were fixed with 2% Para formaldehyde and inspected under a light microscopy and photographed. (B) β-oxa-21:3n-3 or vehicle was injected intraperitoneally or intravenously to 5 day SRBC-sensitized mice. After 2 h splenocytes (0.2 million) were cultured in a 96 well tissue culture plate (Nunc, Inc. Denmark) in the presence of PHA and PMA (PHA/PMA) or PMA (10 ng/ml) and A23187 ([…]) (PMA/A23187) for 3 days. Thymidine incorporation for final 16 hours of culture was determined. The data represents the mean±SEM of 3 separate experiments each conducted in quintuplets.
6-7 weeks old Balb/c mice were injected subcutaneously with 100 μl of 10% sheep red blood cells (IMVS, Inc., Adelaide, Australia) After 5 days 100 ul of β-oxa-21:3n-3 at indicated amounts were injected intraperitoneally, intravenously or gavaged orally. In another experimental set up mice were given β-tha-21:3n-3 i.p. In a third approach mice were infected subcutaneously with 100 μl of Tetanus Toxoid (2,500 Lf/ml). Then 7 days later were given β-oxa-21:3n-3. At indicated time points mice were sacrificed and spleens were removed. Single cell suspensions were prepared and white blood cells (WBC) were enriched by passing through Ficoll-Paque Plus (GE Healthcare). Cells were washed with RPMI-1640 containing 10% fetal bovine serum, 10 mM Hepes, antibiotics and glutamine (RPMI-10) and counted using an automated Cell-Dyne 3500R (Abbott, Inc. MA) instrument. Cells were viable (>98%) as judged by trypan blue exclusion. (β-oxa-21:3n-3)- or vehicle-treated mouse samples (200,000/well) were mixed either with SRBC (600,000/well) with 100 μl of Tetanus toxoid (50 Lf/ml) or phytohaemaglutinin (PHA) (2 μg/ml) or with PHA plus phorbol myristate acetate (PMA) (10 ng/ml) or with PMA plus calcium ionophore A23187 ([…]). Cells were cultured in 96 well U bottom plates (Nunc, Inc. Denmark) for 3 days (except for TT −5 days) at 37° C. under humidified air containing 5% CO2. At some instances 50 μl of supernatants were transferred to a new plate and frozen immediately at −70° C. to be used for cytokine measurements. Thymidine (50 μl, 1 μCi/well) was added at final 16 hours of culture. Cells were harvested and thymidine incorporation was determined using a beta scintillation counter.
To assess whether or not the immunosuppression observed was restricted to antigen-dependent stimulation, we explored the effect of β-oxa-21:3n-3 on mitogen-induced splenocyte adhesion and proliferation. […] The cells were cultured for 3 days and the extent of proliferation was assessed by thymidine incorporation.

[3] = tested on: delayed-type hypersensitivity to SRBC antigen; conditions: intraperitoneal administration, mouse hind paws; cited from earlier work
[4] = IP- or IV-administered, 3 days culture, thymidine incorporation

CC/C=C\C/C=C\C/C=C\CCCCCCCCOCC(=O)O [β-oxa-21:3n-3]
splenocyte proliferation, MHC class II cells from treated animals co-cultured with T cells from either treated or vehicle animals [1]: no suppression
splenocyte proliferation, T cells from treated animals co-cultured with MHC class II cells from treated or vehicle animals [1]: suppressed
viable cells (excluded propidium iodide) (spleen cells; spleen cells from treated SRBC-sensitized mice): > 95%
viable cell numbers versus vehicle-treated mice (spleen cells; spleen cells, SRBC-sensitized mice): no major difference
antigen-induced macrophage cytokine levels (MCP-1, KC, IL-12) [2]: no significant effects
antigen-stimulated Th1 cytokines (IL-2, IL-6, IFNγ and TNFα) [2]: concentration-dependent reduction
antigen-stimulated Th2 cytokines (IL-4, IL-5, IL-10 and IL-13) [2]: concentration-dependent reduction
splenocyte proliferation in response to PHA-PMA (splenocytes; [4]): not affected in their responsiveness
splenocyte proliferation in response to PMA-A23187 (splenocytes; [4]): not affected in their responsiveness
splenocyte adherence (splenocytes; PHA and PMA stimulation for 4 h, SRBC pre-sensitized mice): not affected
splenocyte proliferation in response to PHA alone (splenocytes; not shown): did not affect
delayed-type hypersensitivity to SRBC antigen [3]: inhibition
